What is called IC50 is the concentration at which inhibition is half-maximal. A word on the logP: it is the decadic logarithm of the partition coefficient of the neutral form, usually between octanol and water. Low values mean a more hydrophilic compound, high ones a more lipophilic compound. Usually Kd stands for the equilibrium constant for the complex coming apart.

A short description of data set [1]: Cytotoxicity against human HDF cells assessed as reduction in cell growth incubated for 72 hrs by SRB assay. The following applies: HDFa. The class given is cell-based.
The nature of data set [2]: Selectivity index, ratio of IC50 for cytotoxicity against human HDF cells to IC50 for cytotoxicity against human SK-OV-3 cells.
The nature of data set [3]: Octanol/water partition coefficient, logP of compound incubated for 1 hr by UV-visible spectrophotometry. The class given is physicochemical.
Data set [4] in a line: Selectivity index, ratio of IC50 for cytotoxicity against human HDF cells to IC50 for cytotoxicity against human U-87 MG cells. The conditions noted are these: HDF cells versus U-87 MG cells, read-out: Ratio IC50. The class given is toxicity, cell-based.
Data set [5] deals with PC-3. Description: Antiproliferative activity against human PC-3 cells assessed as reduction in cell growth incubated for 72 hrs by SRB assay. The class given is functional, cell-based. The conditions noted are these: PC-3, 72 h. A general note: In SRB staining, fixed cells bind dye roughly in proportion to their protein.
For data set [6], the system named is A549. Description: Antiproliferative activity against human A549 cells assessed as reduction in cell growth incubated for 72 hrs by SRB assay. Type of data set: functional, cell-based. The following applies: A549, 72 h.
Data set [7] is described as follows: Selectivity index, ratio of IC50 for cytotoxicity against human HDF cells to IC50 for cytotoxicity against human PC-3 cells. Type of data set: toxicity, cell-based. The following applies: HDF cells versus PC-3 cells, read-out: Ratio IC50.
The test system of data set [8] is SK-BR-3. The data set is described as follows: Antiproliferative activity against human SK-BR-3 cells assessed as reduction in cell growth incubated for 72 hrs by SRB assay. The class given is functional, cell-based. The following applies: SK-BR-3, 72 h.
Data set [9] can be described thus: Binding affinity to HSP90 (unknown origin) assessed as dissociation constant by isothermal titration calorimetry. Set-up: species or system Homo sapiens. (ITC needs no label: the signal is the heat of the interaction.)
Data set [10] is described as follows: Selectivity index, ratio of IC50 for cytotoxicity against human HDF cells to IC50 for cytotoxicity against human SK-BR-3 cells. The class given is toxicity, cell-based. The conditions noted are these: HDF cells versus SK-BR-3 cells, read-out: Ratio IC50.
Data set [11] relates to SK-OV-3. The data set is described as follows: Antiproliferative activity against human SK-OV-3 cells assessed as reduction in cell growth incubated for 72 hrs by SRB assay. The class given is functional, cell-based. The conditions noted are these: SK-OV-3, 72 h.
For data set [12], the system named is U-87 MG. Description: Antiproliferative activity against human U-87 MG cells assessed as reduction in cell growth incubated for 72 hrs by SRB assay. The class given is functional, cell-based, U-87MG ATCC.
A short description of data set [13]: Selectivity index, ratio of IC50 for cytotoxicity against human HDF cells to IC50 for cytotoxicity against human A549 cells. The class given is toxicity, cell-based. The following applies: HDF cells versus A549 cells, read-out: Ratio IC50.
The nature of data set [14]: Binding affinity to HSP90 (unknown origin). Further details: species or system Homo sapiens.
Data set [15] is described as follows: Binding affinity to yeast HSP90 assessed as dissociation constant by isothermal titration calorimetry. Set-up: species or system Saccharomyces cerevisiae.

As to `COCCOCCOCCNC1=C2C[C@@H](C)C[C@H](OC)[C@H](O)[C@@H](C)/C=C(\C)[C@H](OC(N)=O)[C@@H](OC)/C=C\C=C(/C)C(=O)NC(=CC1=O)C2=O`, the half-maximal inhibitory concentration (IC50) in data set [1] was determined as 2770 nM; in [5], 810 nM; in [6] it was 910 nM; in [8], 930 nM; in [11], 740 nM; in data set [12], 790 nM. Further, the “Ratio IC50” value in [2] was 3.74. The compound also returned a log partition coefficient (logP) at 1 h in data set [3] of 2.02. For the same compound, the selectivity ratio in data set [4] was determined as 3.51; in [7], 3.42; in data set [10], 2.98; in data set [13], 3.04. Also, the Kd in data set [9] came to 1370 nM.
In the case of `CO[C@H]1/C=C\C=C(/C)C(=O)NC2=CC(=O)C(NC3CCN(C(=O)OC(C)(C)C)CC3)=C(C[C@@H](C)C[C@H](OC)[C@H](O)[C@@H](C)/C=C(\C)[C@@H]1OC(N)=O)C2=O`, the IC50 in data set [1] came to 2550 nM; in [5] it was 190 nM; in data set [6], 77 nM; in data set [8] it was 77 nM; in data set [11] it was 83 nM; in [12] it was 84 nM. The “Ratio IC50” value in [2] is 30.7. The logP at 1 h in data set [3] came to 3.11. Also, the selectivity ratio in [4] came out at 30.4; in [7], 13.4; in data set [10], 33.1; in [13], 33.1. Moreover, the Kd in data set [9] was found to be 820 nM.
In the case of `CCOC(=O)N1CCC(NC2=C3C[C@@H](C)C[C@H](OC)[C@H](O)[C@@H](C)/C=C(\C)[C@H](OC(N)=O)[C@@H](OC)/C=C\C=C(/C)C(=O)NC(=CC2=O)C3=O)CC1`, the 50% inhibitory concentration (IC50) in data set [1] was 5390 nM; in data set [5] it was 1150 nM; in [6], 1130 nM; in data set [8] it was 1580 nM; in data set [12], 1090 nM. Further, the “Ratio IC50” value in data set [2] is recorded as 3.96. In data set [3], the lipophilicity (logP) at 1 h is 2.39. The selectivity ratio in [4] amounted to 4.94; in [7], 4.69; in data set [10] it was 3.41; in [13], 4.77. For the same compound, the Kd in data set [9] amounted to 890 nM.
Take `CCOC(=O)C1CCC(CNC2=C3C[C@@H](C)C[C@H](OC)[C@H](O)[C@@H](C)/C=C(\C)[C@H](OC(N)=O)[C@@H](OC)/C=C\C=C(/C)C(=O)NC(=CC2=O)C3=O)CC1` (some centres undefined): the IC50 in [1] is 2150 nM; in [5], 570 nM; in data set [6], 590 nM; in data set [8], 590 nM; in data set [11], 550 nM; in [12] it was 620 nM. Besides, the “Ratio IC50” value in data set [2] was 3.91. The compound also returned a logP at 1 h in data set [3] of 2.9. Moreover, the selectivity ratio in data set [4] was 3.47; in [7] it was 3.21; in [10] it was 3.64; in data set [13] it was 3.64. Further, the Kd in [9] came to 900 nM.
Regarding `COC1=C2C[C@@H](C)C[C@H](OC)[C@H](O)[C@@H](C)/C=C(\C)[C@H](OC(N)=O)[C@@H](OC)/C=C\C=C(/C)C(=O)NC(=CC1=O)C2=O` [GELDANAMYCIN], the 50% inhibitory concentration (IC50) in data set [1] was 2130 nM; in data set [5], 730 nM; in data set [6] it was 990 nM; in [8], 870 nM; in [11], 940 nM; in data set [12], 810 nM. Moreover, the “Ratio IC50” value in data set [2] was found to be 2.27. For the same compound, the selectivity ratio was found to be 2.62 in data set [4], 2.92 in [7], 2.45 in data set [10] and 2.15 in data set [13]. Further, the Kd in data set [14] worked out at 10500 nM; in data set [15], 1220 nM.
With `C=CCNC1=C2C[C@@H](C)C[C@H](OC)[C@H](O)[C@@H](C)/C=C(\C)[C@H](OC(N)=O)[C@@H](OC)/C=C\C=C(/C)C(=O)NC(=CC1=O)C2=O` [TANESPIMYCIN], the IC50 was 1200 nM in [1]; 62 nM in data set [5]; over 10000 nM in data set [6]; 38 nM in data set [8]; 220 nM in data set [11]; over 10000 nM in [12]. In addition, the selectivity ratio in data set [4] came to 51; in data set [10], 49; in data set [13] it was 52. Binding in data set [14] was characterised by a dissociation constant (Kd) of 2480 nM.
